ChEMBL document CHEMBL1201862, “PubChem BioAssay data set” (2004)
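Five compound concentrations were applied to cells in 96-well plates for 48 hours; endpoints were derived by simple linear interpolation of the resulting dose-response curve. GI50: concentration for 50% inhibition of growth.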 The source made the active and inactive calls. No stated cut-off is given here; in the data, active = GI50 up to about 1.1 µM and inactive = higher.

Columns and labels:
Test in all cases: DTP human tumour cell line panel, 48 h
786-0 = test system: 786-0
A498 = test system: A498
A549 = test system: A549
ACHN = test system: ACHN
BT-549 = test system: BT-549
CAKI-1 = test system: CAKI-1
CCRF-CEM = test system: CCRF-CEM
COLO 205 = test system: COLO 205
DU-145 = test system: DU-145
EKVX = test system: EKVX
HCC 2998 = test system: HCC 2998
HCT-116 = test system: HCT-116
HCT-15 = test system: HCT-15
HL-60 = test system: HL-60
HOP-62 = test system: HOP-62
HOP-92 = test system: HOP-92
Hs-578T = test system: Hs-578T
IGROV-1 = test system: IGROV-1
K562 = test system: K562
KM12 = test system: KM12
M14 = test system: M14
MCF7 = test system: MCF7
MDA-MB-435 = test system: MDA-MB-435
MOLT-4 = test system: MOLT-4
Malme-3M = test system: Malme-3M
NCI-H23 = test system: NCI-H23
NCI-H460 = test system: NCI-H460
NCI-H522 = test system: NCI-H522
NCI/ADR-RES = test system: NCI/ADR-RES
OVCAR-3 = test system: OVCAR-3
OVCAR-4 = test system: OVCAR-4
OVCAR-5 = test system: OVCAR-5
OVCAR-8 = test system: OVCAR-8
PC-3 = test system: PC-3
RXF 393 = test system: RXF 393
SF-268 = test system: SF-268
SF-295 = test system: SF-295
SF-539 = test system: SF-539
SK-MEL-2 = test system: SK-MEL-2
SK-MEL-5 = test system: SK-MEL-5
SK-OV-3 = test system: SK-OV-3
SN12C = test system: SN12C
SNB-19 = test system: SNB-19
SNB-75 = test system: SNB-75
SW-620 = test system: SW-620
T47D = test system: T47D
TK-10 = test system: TK-10
U-251 = test system: U-251
UACC-257 = test system: UACC-257
UO-31 = test system: UO-31
HT-29 = test system: HT-29
LOX IMVI = test system: LOX IMVI
MDA-MB-231 = test system: MDA-MB-231
NCI-H226 = test system: NCI-H226
SK-MEL-28 = test system: SK-MEL-28
SR = test system: SR
UACC-62 = test system: UACC-62
RPMI-8226 = test system: RPMI-8226
MDA-N = test system: MDA-N

Measured: GI50

N#CC1C(=O)NC2=C(CCOc3c2ccc2ccccc32)C1c1ccc(F)cc1 (configuration not stated)
38.5 µM: HCT-15
inactive: 786-0 17.7 µM | A498 19.7 µM | A549 25.2 µM | ACHN 13.3 µM | BT-549 60 µM | CAKI-1 31.5 µM | CCRF-CEM 28.4 µM | COLO 205 61 µM | DU-145 29.1 µM | EKVX 36 µM | HCC 2998 23.9 µM | HCT-116 14 µM | HL-60 > 100 µM | HOP-62 18.5 µM | HOP-92 7.46 µM | Hs-578T 16.2 µM | IGROV-1 17.3 µM | K562 > 100 µM | KM12 67.5 µM | M14 26.1 µM | MCF7 36.7 µM | MDA-MB-435 40.9 µM | MOLT-4 37.6 µM | Malme-3M 27.8 µM | NCI-H23 23.4 µM | NCI-H460 29.9 µM | NCI-H522 37.1 µM | NCI/ADR-RES 14.9 µM | OVCAR-3 21.1 µM | OVCAR-4 31.8 µM | OVCAR-5 23.5 µM | OVCAR-8 33.3 µM | PC-3 19.3 µM | RXF 393 15 µM | SF-268 22.4 µM | SF-295 20.4 µM | SF-539 44.8 µM | SK-MEL-2 29.8 µM | SK-MEL-5 21.5 µM | SK-OV-3 24.8 µM | SN12C 10.8 µM | SNB-19 20 µM | SNB-75 20.2 µM | SW-620 31 µM | T47D 27.4 µM | TK-10 23.4 µM | U-251 12.3 µM | UACC-257 > 100 µM | UO-31 12.1 µM

COC(=O)C1=C(C(=O)OC)SC2(S1)C(C(=O)OC)=C(C(=O)OC)Sc1c2ss/c1=N/C(C)(C)C
active: CCRF-CEM 0.345 µM | DU-145 0.877 µM | HCC 2998 1.08 µM | HCT-116 0.769 µM | HL-60 0.753 µM | LOX IMVI 1.04 µM | MOLT-4 0.417 µM | NCI-H460 0.533 µM | NCI-H522 0.555 µM | RXF 393 0.541 µM | SR 0.366 µM | SW-620 0.622 µM
0.622 µM: HCT-15
inactive: 786-0 1.31 µM | A498 1.92 µM | A549 2.43 µM | ACHN 1.74 µM | BT-549 2.07 µM | CAKI-1 1.53 µM | COLO 205 1.45 µM | EKVX 1.49 µM | HOP-62 3.72 µM | HOP-92 1.3 µM | HT-29 1.17 µM | Hs-578T 4.32 µM | IGROV-1 1.4 µM | K562 2.21 µM | KM12 1.57 µM | M14 1.66 µM | MCF7 1.26 µM | MDA-MB-231 1.64 µM | MDA-MB-435 1.55 µM | Malme-3M 2.18 µM | NCI-H226 3.18 µM | NCI-H23 2.23 µM | NCI/ADR-RES 2.5 µM | OVCAR-3 1.67 µM | OVCAR-4 1.79 µM | OVCAR-5 1.87 µM | OVCAR-8 1.71 µM | PC-3 1.26 µM | SF-268 1.86 µM | SF-295 14.1 µM | SF-539 1.27 µM | SK-MEL-28 2.07 µM | SK-MEL-2 1.34 µM | SK-MEL-5 1.91 µM | SK-OV-3 5.18 µM | SN12C 1.22 µM | SNB-19 2.13 µM | SNB-75 1.45 µM | T47D 1.41 µM | TK-10 1.64 µM | U-251 1.72 µM | UACC-257 1.47 µM | UACC-62 1.56 µM | UO-31 1.92 µM

COC(=O)[C@]1(C)CCCn2c(=O)n(-c3ccccc3)c(=O)n21
> 100 µM: HCT-15
inactive: 786-0 > 100 µM | A498 > 100 µM | A549 > 100 µM | ACHN > 100 µM | BT-549 > 100 µM | CAKI-1 > 100 µM | CCRF-CEM > 100 µM | COLO 205 > 100 µM | DU-145 > 100 µM | EKVX > 100 µM | HCC 2998 > 100 µM | HCT-116 > 100 µM | HOP-62 > 100 µM | HOP-92 > 100 µM | HT-29 > 100 µM | Hs-578T > 100 µM | IGROV-1 > 100 µM | K562 > 100 µM | KM12 > 100 µM | LOX IMVI > 100 µM | M14 > 100 µM | MCF7 > 100 µM | MDA-MB-231 > 100 µM | MDA-MB-435 > 100 µM | MOLT-4 > 100 µM | NCI-H226 68.1 µM | NCI-H23 > 100 µM | NCI-H522 > 100 µM | NCI/ADR-RES > 100 µM | OVCAR-3 > 100 µM | OVCAR-4 > 100 µM | OVCAR-5 > 100 µM | OVCAR-8 > 100 µM | PC-3 > 100 µM | RPMI-8226 > 100 µM | RXF 393 > 100 µM | SF-268 > 100 µM | SF-295 > 100 µM | SF-539 > 100 µM | SK-MEL-28 > 100 µM | SK-MEL-2 > 100 µM | SK-MEL-5 > 100 µM | SK-OV-3 > 100 µM | SN12C > 100 µM | SNB-19 > 100 µM | SNB-75 > 100 µM | SW-620 > 100 µM | T47D > 100 µM | TK-10 > 100 µM | U-251 > 100 µM | UACC-257 > 100 µM | UACC-62 > 100 µM | UO-31 > 100 µM

COC(=O)C1OC2(CCCC3CC32)O[C@H]1C(=O)OC (some centres not stated)
> 100 µM: HCT-15
inactive: 786-0 > 100 µM | A549 > 100 µM | ACHN > 100 µM | BT-549 > 100 µM | CAKI-1 > 100 µM | CCRF-CEM > 100 µM | COLO 205 > 100 µM | DU-145 > 100 µM | EKVX > 100 µM | HCC 2998 > 100 µM | HCT-116 > 100 µM | HL-60 > 100 µM | HOP-62 > 100 µM | HOP-92 68.7 µM | HT-29 > 100 µM | Hs-578T > 100 µM | IGROV-1 > 100 µM | K562 > 100 µM | KM12 > 100 µM | LOX IMVI > 100 µM | M14 > 100 µM | MCF7 > 100 µM | MDA-MB-231 > 100 µM | MDA-MB-435 > 100 µM | MDA-N > 100 µM | MOLT-4 > 100 µM | Malme-3M > 100 µM | NCI-H226 > 100 µM | NCI-H23 > 100 µM | NCI-H460 90.4 µM | NCI-H522 > 100 µM | NCI/ADR-RES > 100 µM | OVCAR-3 > 100 µM | OVCAR-4 > 100 µM | OVCAR-5 > 100 µM | OVCAR-8 > 100 µM | PC-3 > 100 µM | RPMI-8226 > 100 µM | RXF 393 > 100 µM | SF-268 > 100 µM | SF-295 > 100 µM | SF-539 > 100 µM | SK-MEL-28 > 100 µM | SK-MEL-2 > 100 µM | SK-OV-3 > 100 µM | SN12C > 100 µM | SNB-19 > 100 µM | SNB-75 > 100 µM | SR > 100 µM | SW-620 > 100 µM | TK-10 > 100 µM | U-251 > 100 µM | UACC-257 > 100 µM | UACC-62 > 100 µM | UO-31 > 100 µM
